# In article PMC9455983 (International Journal of Molecular Sciences, 2022):
# “Also recorded” adds a separate entry of the source.
# Columns and labels:
# C57BL/6J mice [1] = assay: Ambulation (locomotor activity) in CLAMS/Oxymax system; format: in vivo, mouse; settings: i.c.v.
# Procedure: Respiration rates (in breaths per minute) and animal locomotive activity (as ambulations) were assessed using the Oxymax/CLAMS system (Columbus Instruments, Columbus, OH), as described previously. Mice were habituated to their individual sealed housing chambers for 60 min before testing. Mice were administered 1968-22 (0.3–100 nmol, i.c.v.), morphine (100 nmol, i.c.v.), or vehicle, as indicated, and five min later confined to the CLAMS testing chambers. Pressure monitoring within the sealed chambers measured frequency of respiration. Infrared beams located in the floor measured locomotion as number of beam breaks. Respiration and locomotive data were averaged over 20 min periods for 120 min post-injection of the test compound. Data are presented as % vehicle response ± SEM, ambulation or breaths per minute.
# C57BL/6J mice [2] = assay: Opioid receptor involvement in antinociception (antagonist pretreatment, tail-withdrawal assay); format: in vivo, mouse
# Procedure: Pretreatment of mice with the opioid antagonist naloxone (10 mg/kg, s.c., −15 min) was used to assess receptor contribution to the observed antinociception induced by maximal tested doses of each 1968-series compound tested.
# The opioid receptor involvement in the agonist activity of the heterocyclic peptidomimetics was determined by pretreating mice with a single dose of β-funaltrexamine (β-FNA, 10 mg/kg, i.p.) or nor-BNI (10 mg/kg, i.p.) 24 h in advance of administration of a dose of 1968-series compound.
# C57BL/6J mice [3] = assay: Opioid antagonist activity of 1968-22 against opioid agonists (tail-withdrawal assay)
compound,measurement,setting,value
Cc1cc(O)cc(C)c1C[C@H]1CN([C@@H](Cc2c(C)cc(O)cc2C)CN2C(=N)NC[C@@H]2C)C(=N)N1 [1968-22],effect on ambulation vs vehicle,"C57BL/6J mice [1]; 0.3 nmol, 0–20 min",brief reductions in ambulations
same,effect on ambulation vs vehicle,C57BL/6J mice [1]; 100 nmol,elevated ambulations
same,effect on ambulation vs vehicle,C57BL/6J mice [1]; 1 or 10 nmol,without significant effect
same,effect of naloxone pretreatment on antinociception,"C57BL/6J mice [2]; naloxone 10 mg/kg, s.c., −15 min, maximal tested i.c.v. dose of compound",most susceptible to antagonism by naloxone; also recorded: blocked fully
same,effect of naltrindole (DOR antagonist) pretreatment on antinociception,"C57BL/6J mice [2]; naltrindole 20 mg/kg, i.p., −20 min, 1968-16 30 nmol or 1968-22 0.3 nmol, i.c.v.",significantly antagonized
same,effect of nor-BNI (KOR antagonist) pretreatment on antinociception,"C57BL/6J mice [2]; nor-BNI 10 mg/kg, i.p., −24 h, 1968-16 30 nmol or 1968-22 0.3 nmol, i.c.v.",significantly antagonized
same,effect of β-FNA (MOR antagonist) pretreatment on antinociception,"C57BL/6J mice [2]; β-FNA 10 mg/kg, i.p., −24 h, 1968-16 30 nmol or 1968-22 0.3 nmol, i.c.v.",significantly antagonized
same,antagonism of SNC-80-induced antinociception,"C57BL/6J mice [3]; 2.5 h pretreatment, 0.3 nmol i.c.v., SNC-80 100 nmol, i.c.v.",significantly antagonized
same,antagonism of morphine-induced antinociception,"C57BL/6J mice [3]; 2.5 h pretreatment, 0.3 nmol i.c.v., morphine 10 mg/kg, i.p.",did not have an effect
same,pretreatment dose giving maximal antagonism of SNC-80,"C57BL/6J mice [3]; i.c.v. pretreatment, SNC-80 100 nmol, i.c.v.",3 nmol
